# Like-named read-outs stand apart in the source and are kept apart here.
# What was measured:
# full length (FL) LXRα = molecular target: T1, full length (FL) LXRα (Homo sapiens, UniProt Q13133); experiment: LXR Gal4 reporter transient transfection assay (FL-M2H Gal4α); type: cell-based; details: HEK293 cells; for EC50: full length LXRα, read-out: FL-M2H Gal4α (EC50 range)
# T1 construct: the full length (FL) proteins of LXRα (amino acids 1-447); NP005684; expressed in transfected cells; host or cells: HEK293
# T1 sequence (Q13133 1-447): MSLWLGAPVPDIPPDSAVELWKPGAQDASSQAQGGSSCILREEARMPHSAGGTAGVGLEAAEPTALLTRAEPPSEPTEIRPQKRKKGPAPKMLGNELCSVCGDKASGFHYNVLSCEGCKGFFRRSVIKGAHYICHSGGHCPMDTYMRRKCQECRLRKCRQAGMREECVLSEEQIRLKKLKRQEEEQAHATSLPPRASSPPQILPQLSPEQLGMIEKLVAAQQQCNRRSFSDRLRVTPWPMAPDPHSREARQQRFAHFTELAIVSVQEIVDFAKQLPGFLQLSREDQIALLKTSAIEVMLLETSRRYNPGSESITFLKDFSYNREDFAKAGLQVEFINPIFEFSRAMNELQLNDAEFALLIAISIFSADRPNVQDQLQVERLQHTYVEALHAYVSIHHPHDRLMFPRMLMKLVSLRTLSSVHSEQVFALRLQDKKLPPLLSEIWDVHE
# Description: The tested compounds were usually dissolved, tested and stored as 20 mM stock solutions in DMSO. Since sulfonyl acetic acid derivatives tend to decarboxylate under these conditions, these stock solutions were prepared, tested and stored as 20 mM DMSO stock solutions containing 100 mM trifluoroacetic Acid (5 equivalents). Sulfonyl acetic acid derivatives are shelf stable as solid at rt for long time as reported by Griesbrecht et al. (Synlett 2010:374) or Faucher et al. (J. Med. Chem. 2004; 47:18).
# LXR Gal4 Reporter Transient Transfection Assays
# LXRα and LXRβ activity status was determined via detection of interaction with coactivator and corepressor proteins in mammalian two-hybrid experiments (M2H). For this, via transient transfection the full length (FL) proteins of LXRα (amino acids 1-447; NP005684; SEQ ID NO:1) or LXRβ-(amino acids 1-461; NP009052; SEQ ID NO:2) or the ligand-binding domains (LBD) of LXRα (amino acids 155-447 SEQ ID NO:3) or LXRβ (amino acids 156-461; SEQ ID NO:4) were expressed from pCMV-AD (Stratagene) as fusions to the transcriptional activation domain of NFkB. As cofactors, domains of either the steroid receptor coactivator 1 (SRC1; amino acids 552-887; SEQ ID NO:5) or of the corepressor NCoR (amino acids 1906-2312; NP006302; SEQ ID NO:6) were expressed as fusions to the DNA binding domain of the yeast transcription factor GAL4 (from pCMV-BD; Stratagene). Interaction was monitored via activation of a coexpressed Firefly Luciferase Reporter gene under control of a promoter containing repetitive GAL4 response elements (vector pFRLuc; Stratagene). Transfection efficiency was controlled via cotransfection of constitutively active pRL-CMV Renila reniformis luciferase reporter (Promega). HEK293 cells were grown in minimum essential medium (MEM) with 2 mM L-glutamine and Earle's balanced salt solution supplemented with 8.3% fetal bovine serum, 0.1 mM non-essential amino acids, 1 mM sodium pyruvate, at 37° C. in 5% CO2. 3.5×10^4 cells/well were plated in 96-well cell culture plates in growth medium supplemented with 8.3% fetal bovine serum for 16-20 h to ˜90% confluency. For transfection, medium was taken off and LXR and cofactor expressing plasmids as well as the reporter plasmids are added in 30 μL OPTIMEM/well including polyethylene-imine (PEI) as vehicle. Typical amounts of plasmids transfected/well: pCMV-AD-LXR (5 ng), pCMV-BD-cofactor (5 ng), pFR-Luc (100 ng), pRL-CMV (0.5 ng). Compound stocks were prepared in DMSO, prediluted in MEM to a total volume of 120 μL, and added 4 h after addition of the transfection mixture (final vehicle concentration not exceeding 0.2%). Cells were incubated for additional 16 h, lysed for 10 min in 1× Passive Lysis Buffer (Promega) and Firefly and Renilla luciferase activities were measured sequentially in the same cell extract using buffers containing D-luciferine and coelenterazine, respectively. Measurements of luminescence were done in a BMG-luminometer.
# [1] = molecular target: T2, LXRβ ligand-binding domain (Homo sapiens, UniProt P55055, DUP175-175); experiment: TR-FRETβ activity assay (NCoA3 coactivator peptide recruitment); type: biochemical
# T2 construct: amino acids 156-461; NP009052; made in house; host or cells: E. coli
# T2 sequence (P55055 with tags, fused parts or gaps DUP175-175 limits assumed): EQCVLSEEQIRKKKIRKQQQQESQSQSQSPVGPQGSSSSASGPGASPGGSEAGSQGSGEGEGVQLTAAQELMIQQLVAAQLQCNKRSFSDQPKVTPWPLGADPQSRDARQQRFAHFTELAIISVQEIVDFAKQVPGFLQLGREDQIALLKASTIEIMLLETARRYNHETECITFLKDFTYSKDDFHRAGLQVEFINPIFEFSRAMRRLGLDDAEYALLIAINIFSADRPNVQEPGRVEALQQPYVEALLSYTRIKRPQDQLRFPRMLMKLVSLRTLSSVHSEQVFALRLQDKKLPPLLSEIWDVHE
# In short: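 Inverse agonism assessed by loss of coactivator recruitment, read as TR-FRET 665/615 nm after 1 h equilibration at 4 °C, in triplicate. Ten-point titration from 50 μM to 0.002 μM against LXRβ LBD (76 nM, GST fusion) prestimulated with 1 μM 24(S)-25-epoxycholesterol, with 400 nM NCoA3 peptide, pH 6.8. Sulfonyl acetic acids kept as 20 mM DMSO stocks with 100 mM TFA.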
# full length (FL) LXRβ = molecular target: T3, full length (FL) LXRβ (Homo sapiens, UniProt P55055, DUP175-175); experiment: LXR Gal4 reporter transient transfection assay (FL-M2H Gal4β); type: cell-based; details: HEK293 cells; for EC50: full length LXRβ, read-out: FL-M2H Gal4β (EC50 range)
# T3 construct: the full length (FL) proteins of LXRα (amino acids 1-447); NP005684; NP009052; expressed in transfected cells; host or cells: HEK293
# T3 sequence (P55055 with tags, fused parts or gaps DUP175-175): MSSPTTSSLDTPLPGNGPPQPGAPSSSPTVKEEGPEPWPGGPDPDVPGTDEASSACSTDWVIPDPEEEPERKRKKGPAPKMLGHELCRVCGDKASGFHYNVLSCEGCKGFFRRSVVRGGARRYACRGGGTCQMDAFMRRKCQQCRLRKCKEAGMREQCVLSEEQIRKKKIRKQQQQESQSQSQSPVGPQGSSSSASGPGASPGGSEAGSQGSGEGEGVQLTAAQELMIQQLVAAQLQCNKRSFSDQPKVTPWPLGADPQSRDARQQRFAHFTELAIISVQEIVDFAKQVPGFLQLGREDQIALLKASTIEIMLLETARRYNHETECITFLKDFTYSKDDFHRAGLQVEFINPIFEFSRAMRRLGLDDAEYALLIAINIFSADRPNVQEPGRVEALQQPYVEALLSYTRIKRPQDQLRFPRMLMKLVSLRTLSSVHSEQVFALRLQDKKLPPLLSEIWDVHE
# In short: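 HEK293 cells were transiently co-transfected with NFkB activation-domain fusions of LXR (full length or LBD) and GAL4 DNA-binding-domain fusions of SRC1 (aa 552-887) or NCoR (aa 1906-2312), plus a GAL4-response-element Firefly luciferase reporter and a Renilla control. Compounds were added 4 h post-transfection, cells incubated 16 h, then dual luciferase read.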
# [2] = TR-FRET, 1 μM 24(S)-25-epoxycholesterol prestimulation, read-out: FRETβ (EC50 range)
Structure (SMILES),EC50 (full length (FL) LXRα),"EC50 [1, 2]",EC50 (full length (FL) LXRβ),FL-M2H Gal4α potency (full length (FL) LXRα),FRETβ efficacy (value in brackets) ([1]; 1 μM 24(S)-25-epoxycholesterol as prestimulating agonist),"EC50 ([1]; 1 μM 24(S)-25-epoxycholesterol as prestimulating agonist, read-out: FRETβ potency)",FL-M2H Gal4β potency (full length (FL) LXRβ)
N#Cc1cccc(C#N)c1-c1c(-c2cccc(-c3ccc(C(=O)O)cc3F)c2)n(S(=O)(=O)C2CCC(C(F)(F)F)CC2)c2ccc(F)cc12 (stereo not shown) [11/64],< 100 nM,100 to 1000 nM,< 100 nM,–,–,–,–
"Cc1ccc(S(=O)(=O)n2c(-c3cccc(N4CC(C(=O)O)C4)c3)c(-c3csc(C#N)c3)c3cc(F)ccc32)cc1 [C3/29, reference compound]",–,–,–,inactive,−102%,4230 nM,inactive
Cc1ccc(S(=O)(=O)n2c(-c3cccc(-c4ccc(C(C)(C)C(=O)O)c(S(C)(=O)=O)c4)c3)c(-c3ccsc3C#N)c3cc(F)ccc32)cc1 [2/18],100 to 1000 nM,100 to 1000 nM,< 100 nM,–,–,–,–
N#Cc1ccccc1-c1c(-c2cccc(-c3ccc(C(=O)O)cc3Cl)c2)n(S(=O)(=O)c2ccc(C(F)F)cc2)c2cccnc12 [8/7],100 to 1000 nM,100 to 1000 nM,< 100 nM,–,–,–,–
N#Cc1cccc(C#N)c1-c1c(-c2cccc(-c3ccc(C(=O)O)cc3Cl)c2)n(S(=O)(=O)c2ccc(Cl)cc2)c2ccc(F)cc12 [11/55],< 100 nM,< 100 nM,< 100 nM,–,–,–,–
N#Cc1sccc1-c1c(-c2cccc(-c3ccc(C(=O)O)cc3)c2)n(S(=O)(=O)c2ccc3c(c2)CCC3)c2ccc(F)cc12 [23/3],< 100 nM,100 to 1000 nM,< 100 nM,–,–,–,–
Cc1ccc(S(=O)(=O)n2c(-c3cc(N4CC(C(=O)O)C4)ccc3F)c(-c3ccsc3C#N)c3cc(F)ccc32)cc1 [3/41],< 100 nM,1000 to 10000 nM,< 100 nM,–,–,–,–
N#Cc1sccc1-c1c(-c2cccc(C3CC3C(=O)NO)c2)n(S(=O)(=O)c2ccc(Cl)cc2)c2ccccc12 (stereo not shown) [6/1],< 100 nM,100 to 1000 nM,< 100 nM,–,–,–,–
Cc1ccc(S(=O)(=O)n2c(-c3cccc(-c4cc(C(=O)O)nn4C(C)C)c3)c(-c3ccsc3C#N)c3cc(F)ccc32)cc1 [12/8],100 to 1000 nM,1000 to 10000 nM,100 to 1000 nM,–,–,–,–
N#Cc1cccc(C#N)c1-c1c(-c2cccc(-c3ccc(C(=O)O)cc3Cl)c2)n(S(=O)(=O)c2ccc(C(F)F)cc2)c2ccccc12 [11/56],< 100 nM,< 100 nM,< 100 nM,–,–,–,–
N#Cc1sccc1-c1c(-c2cccc(-c3ccc(C(=O)O)cc3Cl)c2)n(S(=O)(=O)c2ccc(Cl)cc2)c2ccc(F)cc12 [3/57],< 100 nM,100 to 1000 nM,< 100 nM,–,–,–,–
Cc1ccc(S(=O)(=O)n2c(-c3cccc(-c4cc(C(=O)O)nn4C)c3)c(-c3ccsc3C#N)c3cc(F)ccc32)cc1 [12/7],100 to 1000 nM,100 to 1000 nM,100 to 1000 nM,–,–,–,–
Cc1ccc(S(=O)(=O)n2c(-c3cccc(C4CC5(CC(C(=O)O)C5)C4)c3)c(-c3ccsc3C#N)c3cc(F)ccc32)cc1 (stereo not shown) [3/65],< 100 nM,100 to 1000 nM,< 100 nM,–,–,–,–
CC(O)(C(=O)O)c1ccc(-c2cccc(-c3c(-c4c(C#N)cccc4C#N)c4cc(F)ccc4n3S(=O)(=O)c3ccc(C(F)F)cc3)c2)cc1 (stereo not shown) [11/59],< 100 nM,< 100 nM,< 100 nM,–,–,–,–
N#Cc1sccc1-c1c(-c2cccc(-c3ccc(C(=O)O)cc3Cl)c2)n(S(=O)(=O)c2ccc(C(F)F)nc2)c2ccc(F)cc12 [11/57],< 100 nM,< 100 nM,< 100 nM,–,–,–,–
N#Cc1sccc1-c1c(-c2cccc(-c3ccc(C(=O)O)cc3Cl)c2)n(S(=O)(=O)c2ccc(F)cc2)c2ccc(F)cc12 [11/18],< 100 nM,100 to 1000 nM,< 100 nM,–,–,–,–
Cc1ccc(S(=O)(=O)n2c(-c3cccc(-c4ccc(C(=O)O)cc4Cl)c3)c(-c3ccc(C)cc3C#N)c3cc(F)ccc32)cc1 [11/4],< 100 nM,100 to 1000 nM,< 100 nM,–,–,–,–
Cc1ccc(S(=O)(=O)n2c(-c3cccc(N4CC(C(=O)O)C4)c3)c(-c3ccsc3C#N)c3cc(F)ccc32)c(F)c1 [3/14],100 to 1000 nM,1000 to 10000 nM,100 to 1000 nM,–,–,–,–
Cc1ccc(S(=O)(=O)n2c(-c3cccc(-c4ccc(C(=O)O)cc4Cl)c3)c(-c3ccsc3C#N)c3cc(F)ccc32)cc1F [11/19],< 100 nM,100 to 1000 nM,< 100 nM,–,–,–,–
